Experimental data reported in patent publication US20130209543A1, “ENHANCED TREATMENT REGIMENS USING MTOR INHIBITORS” (Intellikine LLC, priority 2011, published 2013).
pEC50, pIC50: −log10 of the molar value. Where two headings read alike, the source gives them in different places.

How the values were obtained:
[1] = target: PI3K β (Homo sapiens, UniProt P42338); test: PI3K β kinase assay; assay type: biochemical
[2] = target: PI3K α (Homo sapiens, UniProt P42336); test: PI3K α kinase assay; assay type: biochemical
Sequence of PI3K α (P42336 whole entry, species assumed): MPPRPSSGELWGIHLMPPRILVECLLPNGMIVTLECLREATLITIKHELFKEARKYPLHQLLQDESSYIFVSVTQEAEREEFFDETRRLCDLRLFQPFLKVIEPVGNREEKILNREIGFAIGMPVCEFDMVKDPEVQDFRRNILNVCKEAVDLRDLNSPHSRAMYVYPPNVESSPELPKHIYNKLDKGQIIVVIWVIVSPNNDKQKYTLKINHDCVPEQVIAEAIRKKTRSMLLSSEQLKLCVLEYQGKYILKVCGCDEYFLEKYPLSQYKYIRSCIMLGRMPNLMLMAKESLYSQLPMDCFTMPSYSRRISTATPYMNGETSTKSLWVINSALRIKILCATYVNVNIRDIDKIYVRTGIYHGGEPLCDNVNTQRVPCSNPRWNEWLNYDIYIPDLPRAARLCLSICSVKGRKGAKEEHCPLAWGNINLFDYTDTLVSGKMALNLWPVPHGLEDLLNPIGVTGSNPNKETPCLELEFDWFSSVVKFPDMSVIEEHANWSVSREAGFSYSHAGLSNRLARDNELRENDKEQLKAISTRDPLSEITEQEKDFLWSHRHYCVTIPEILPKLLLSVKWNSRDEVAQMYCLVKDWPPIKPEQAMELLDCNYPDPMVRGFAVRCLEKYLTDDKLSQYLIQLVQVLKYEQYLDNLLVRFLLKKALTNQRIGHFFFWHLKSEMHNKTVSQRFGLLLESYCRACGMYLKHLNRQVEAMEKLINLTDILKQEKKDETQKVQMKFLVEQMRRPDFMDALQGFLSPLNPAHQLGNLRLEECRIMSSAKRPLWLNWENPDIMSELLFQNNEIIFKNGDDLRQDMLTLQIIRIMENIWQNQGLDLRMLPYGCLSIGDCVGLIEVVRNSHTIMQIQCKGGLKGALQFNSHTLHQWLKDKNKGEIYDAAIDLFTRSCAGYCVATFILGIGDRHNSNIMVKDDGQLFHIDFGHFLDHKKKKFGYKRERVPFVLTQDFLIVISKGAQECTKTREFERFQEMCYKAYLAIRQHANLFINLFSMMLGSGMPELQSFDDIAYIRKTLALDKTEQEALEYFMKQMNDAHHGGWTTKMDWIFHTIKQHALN
Sequence of PI3K α (P27986 whole entry partner, species assumed): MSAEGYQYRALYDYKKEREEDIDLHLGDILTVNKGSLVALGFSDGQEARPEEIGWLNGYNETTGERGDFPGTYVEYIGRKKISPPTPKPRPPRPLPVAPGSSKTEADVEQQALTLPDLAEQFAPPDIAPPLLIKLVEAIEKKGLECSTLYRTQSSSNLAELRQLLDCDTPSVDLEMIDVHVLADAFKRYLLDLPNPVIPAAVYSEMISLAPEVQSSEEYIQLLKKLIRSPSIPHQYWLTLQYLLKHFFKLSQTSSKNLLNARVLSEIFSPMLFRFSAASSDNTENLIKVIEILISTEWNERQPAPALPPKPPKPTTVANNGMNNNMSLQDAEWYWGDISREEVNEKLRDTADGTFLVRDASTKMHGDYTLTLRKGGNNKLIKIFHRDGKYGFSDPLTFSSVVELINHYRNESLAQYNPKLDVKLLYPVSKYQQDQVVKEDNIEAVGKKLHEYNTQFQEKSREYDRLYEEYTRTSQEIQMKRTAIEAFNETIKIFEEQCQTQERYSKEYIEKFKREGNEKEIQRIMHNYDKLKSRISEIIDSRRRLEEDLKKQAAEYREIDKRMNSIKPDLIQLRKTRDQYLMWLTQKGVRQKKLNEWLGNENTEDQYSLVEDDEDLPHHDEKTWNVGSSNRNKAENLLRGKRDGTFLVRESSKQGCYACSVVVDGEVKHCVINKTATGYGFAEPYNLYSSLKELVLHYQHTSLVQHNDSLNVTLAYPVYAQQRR

[3] = target: PI3K γ (Homo sapiens, UniProt P48736); test: PI3K γ kinase assay; assay type: biochemical
Sequence of PI3K γ (P48736 whole entry, species assumed): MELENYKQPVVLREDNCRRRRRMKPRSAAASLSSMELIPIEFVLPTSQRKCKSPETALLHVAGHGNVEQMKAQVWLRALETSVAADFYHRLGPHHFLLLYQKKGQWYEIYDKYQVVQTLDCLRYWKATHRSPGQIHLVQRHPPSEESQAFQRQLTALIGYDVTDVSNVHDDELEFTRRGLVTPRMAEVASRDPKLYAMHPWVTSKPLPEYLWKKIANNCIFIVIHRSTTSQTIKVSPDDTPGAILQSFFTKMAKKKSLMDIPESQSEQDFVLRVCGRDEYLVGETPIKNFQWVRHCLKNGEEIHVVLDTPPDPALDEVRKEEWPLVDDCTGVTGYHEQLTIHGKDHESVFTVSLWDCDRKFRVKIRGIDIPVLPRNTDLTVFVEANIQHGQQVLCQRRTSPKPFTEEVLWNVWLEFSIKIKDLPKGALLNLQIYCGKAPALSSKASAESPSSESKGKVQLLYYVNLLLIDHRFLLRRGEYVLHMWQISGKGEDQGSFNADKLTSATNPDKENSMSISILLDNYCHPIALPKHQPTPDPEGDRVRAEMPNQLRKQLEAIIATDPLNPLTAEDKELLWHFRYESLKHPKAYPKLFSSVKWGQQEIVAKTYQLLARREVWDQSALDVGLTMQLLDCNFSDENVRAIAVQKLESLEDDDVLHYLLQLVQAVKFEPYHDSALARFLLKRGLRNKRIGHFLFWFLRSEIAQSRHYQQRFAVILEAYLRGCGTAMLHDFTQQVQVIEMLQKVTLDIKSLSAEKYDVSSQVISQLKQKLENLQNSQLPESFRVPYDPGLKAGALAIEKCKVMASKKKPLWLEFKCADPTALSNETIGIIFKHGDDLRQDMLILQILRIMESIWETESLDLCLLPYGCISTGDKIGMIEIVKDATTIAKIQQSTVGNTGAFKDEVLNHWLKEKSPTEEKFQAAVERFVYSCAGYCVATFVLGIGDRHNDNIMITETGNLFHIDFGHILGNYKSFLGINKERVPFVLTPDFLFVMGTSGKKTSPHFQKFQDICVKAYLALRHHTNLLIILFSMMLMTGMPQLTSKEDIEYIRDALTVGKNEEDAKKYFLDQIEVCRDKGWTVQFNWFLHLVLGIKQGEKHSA

[4] = target: T1, mTOR (Homo sapiens, UniProt P42345); test: mTOR kinase inhibition assay; assay type: biochemical
T1 construct: purchased Invitrogen
Protocol: The compounds described herein and any other mTorC1/mTorC2 inhibitors known in the art can be tested against recombinant mTOR (Invitrogen) in an assay containing 50 mM HEPES, pH 7.5, 1 mM EGTA, 10 mM MgCl2, 2.5 mM, 0.01% Tween, 10 μM ATP (2.5 μCi of μ-32P-ATP), and 3 mg/mL BSA. Rat recombinant PHAS-1/4EBP1 (Calbiochem; 2 mg/mL) is used as a substrate. Reactions are terminated by spotting onto nitrocellulose, which is washed with 1M NaCl/1% phosphoric acid (approximately 6 times, 5-10 minutes each). Sheets are dried and the transferred radioactivity quantitated by phosphorimaging.
For instance, one can use Invitrogen's LanthaScreen™ Kinase assay to test the inhibitors of mTOR disclosed herein. This assay is a time resolved FRET platform that measures the phosphorylation of GFP labeled 4EBP1 by mTOR kinase. The kinase reaction is performed in a white 384 well microtitre plate. The total reaction volume is 20 μl per well and the reaction buffer composition is 50 mM HEPES pH7.5, 0.01% Polysorbate 20, 1 mM EGTA, 10 mM MnCl2, and 2 mM DTT. In the first step, each well receives 2 ul of test compound in 20% dimethylsulphoxide resulting in a 2% DMSO final concentration. Next, 8ul of mTOR diluted in reaction buffer is added per well for a 60 ng/ml final concentration. To start the reaction, 10 ul of an ATP/GFP-4EBP1 mixture (diluted in reaction buffer) is added per well for a final concentration of 10 μM ATP and 0.5 μM GFP-4EBP1. The plate is sealed and incubated for 1 hour at room temperature. […] The plate is sealed, incubated for 1 hour at room temperature, and then read on a plate reader set up for LanthaScreen™ TR-FRET. Data is analyzed and IC50s are generated using GraphPad Prism 5.

[5] = target: PI3K δ (Homo sapiens, UniProt O00329); test: PI3K δ kinase assay; assay type: biochemical
Sequence of PI3K δ (O00329 whole entry, species assumed): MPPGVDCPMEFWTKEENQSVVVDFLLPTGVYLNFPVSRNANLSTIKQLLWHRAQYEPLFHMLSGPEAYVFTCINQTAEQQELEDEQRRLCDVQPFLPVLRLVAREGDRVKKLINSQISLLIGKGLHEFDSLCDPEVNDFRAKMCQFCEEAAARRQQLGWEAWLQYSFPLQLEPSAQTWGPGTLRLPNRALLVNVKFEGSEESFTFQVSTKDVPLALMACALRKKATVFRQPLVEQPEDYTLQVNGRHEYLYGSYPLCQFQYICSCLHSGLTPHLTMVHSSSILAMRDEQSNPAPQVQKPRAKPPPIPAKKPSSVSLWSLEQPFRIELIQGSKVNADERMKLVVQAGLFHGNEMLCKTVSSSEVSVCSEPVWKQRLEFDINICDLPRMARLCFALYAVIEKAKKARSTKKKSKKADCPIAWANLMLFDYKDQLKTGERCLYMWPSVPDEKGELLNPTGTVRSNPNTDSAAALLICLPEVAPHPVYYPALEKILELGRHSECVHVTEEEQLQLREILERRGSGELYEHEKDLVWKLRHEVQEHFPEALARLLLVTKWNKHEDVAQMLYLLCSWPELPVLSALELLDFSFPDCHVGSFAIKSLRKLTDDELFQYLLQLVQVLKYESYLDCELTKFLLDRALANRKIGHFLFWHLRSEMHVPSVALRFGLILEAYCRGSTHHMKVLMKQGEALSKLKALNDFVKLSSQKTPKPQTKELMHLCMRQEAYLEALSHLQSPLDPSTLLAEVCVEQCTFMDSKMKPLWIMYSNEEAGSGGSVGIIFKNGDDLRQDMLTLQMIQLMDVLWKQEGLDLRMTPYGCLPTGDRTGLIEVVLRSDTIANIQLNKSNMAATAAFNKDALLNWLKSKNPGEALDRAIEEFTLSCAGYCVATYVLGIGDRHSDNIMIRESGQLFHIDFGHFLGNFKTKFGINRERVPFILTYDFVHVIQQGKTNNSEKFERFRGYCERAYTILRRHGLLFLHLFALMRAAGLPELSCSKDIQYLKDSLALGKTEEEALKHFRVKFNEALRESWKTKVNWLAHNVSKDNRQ
Sequence of PI3K δ (P27986 whole entry partner, species assumed): as the sequence (P27986 whole entry partner, species assumed) above

[6] = test system: PC3; test: PC3 proliferation; assay type: cell-based; conditions: Homo sapiens, PC-3; for pEC50: Table 1; for pIC50: Table 2

Sequence of PI3K β (P42338 whole entry, species assumed): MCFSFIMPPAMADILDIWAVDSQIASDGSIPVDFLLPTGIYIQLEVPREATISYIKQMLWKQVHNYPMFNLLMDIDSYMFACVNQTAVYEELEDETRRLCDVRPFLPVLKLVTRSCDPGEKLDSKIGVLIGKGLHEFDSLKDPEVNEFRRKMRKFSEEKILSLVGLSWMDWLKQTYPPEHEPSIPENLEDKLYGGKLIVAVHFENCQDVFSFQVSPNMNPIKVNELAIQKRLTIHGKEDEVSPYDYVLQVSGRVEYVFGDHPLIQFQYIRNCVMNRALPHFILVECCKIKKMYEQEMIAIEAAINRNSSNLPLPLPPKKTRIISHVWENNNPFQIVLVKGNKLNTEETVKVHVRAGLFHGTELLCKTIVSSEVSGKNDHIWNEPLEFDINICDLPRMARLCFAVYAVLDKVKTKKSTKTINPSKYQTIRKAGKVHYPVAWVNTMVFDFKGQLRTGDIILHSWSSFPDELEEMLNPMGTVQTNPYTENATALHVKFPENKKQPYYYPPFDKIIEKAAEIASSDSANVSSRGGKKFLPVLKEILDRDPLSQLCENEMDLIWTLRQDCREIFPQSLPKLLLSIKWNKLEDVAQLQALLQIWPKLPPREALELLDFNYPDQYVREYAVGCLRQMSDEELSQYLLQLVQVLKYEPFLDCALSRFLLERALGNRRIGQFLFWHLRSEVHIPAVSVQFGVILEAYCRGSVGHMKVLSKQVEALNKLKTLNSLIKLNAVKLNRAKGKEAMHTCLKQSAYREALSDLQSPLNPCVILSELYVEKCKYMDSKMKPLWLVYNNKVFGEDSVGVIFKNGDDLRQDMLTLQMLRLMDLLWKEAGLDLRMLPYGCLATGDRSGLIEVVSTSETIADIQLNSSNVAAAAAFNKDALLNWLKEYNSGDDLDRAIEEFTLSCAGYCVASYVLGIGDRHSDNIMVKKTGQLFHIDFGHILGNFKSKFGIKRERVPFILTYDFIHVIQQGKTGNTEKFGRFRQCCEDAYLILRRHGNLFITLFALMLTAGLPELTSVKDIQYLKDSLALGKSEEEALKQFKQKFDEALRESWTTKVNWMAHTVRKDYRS
Sequence of PI3K β (P27986 whole entry partner, species assumed): as the sequence (P27986 whole entry partner, species assumed) above

Structure (SMILES)	pIC50 ([1]; Table 1)	pIC50 ([2]; Table 1)	pIC50 ([3]; Table 1)	pIC50 ([4]; Table 1, read-out: mTOR IC50)	pIC50 ([5]; Table 1)	pEC50 [6]	pIC50 ([1]; Table 2)	pIC50 ([2]; Table 2)	pIC50 ([3]; Table 2)	pIC50 ([4]; Table 2, read-out: mTORC IC50)	pIC50 ([5]; Table 2)	pIC50 [6]	pIC50 [5]
CC(=O)Nc1nc2cc(-c3nn(C(C)C)c4ncnc(N)c34)ccc2o1 [Compound 2]	< 5.00	> 5.00	> 6.00	> 7.00	> 6.00	> 6.00							
CC(C)n1nc(-c2ccc3nc(N)oc3c2)c2c(N)ncnc21 [Compound 4]	> 5.00	> 5.00	> 6.00	> 6.00	> 6.00	> 5.00							
Nc1nc2cc(-c3nn(C4CCOCC4)c4ncnc(N)c34)ccc2o1 [Compound 5]	> 5.00	> 6.00	> 7.00	> 7.00	> 6.00	> 7.00							
Nc1nc2cc(-c3nn(C4CCC(N5CCOCC5)CC4)c4ncnc(N)c34)ccc2o1 (centres unmarked) [Compound 6]	< 5.00			> 7.00	> 6.00	> 6.00							
CC(=O)N1CCC(n2nc(-c3ccc4oc(N)nc4c3)c3c(N)ncnc32)CC1 [Compound 7]	> 5.00	> 6.00	> 5.00	> 7.00	> 6.00	> 5.00							
CC(C)n1cc(-c2ccc3oc(N)nc3c2)c2c(N)ncnc21 [Compound 8]	< 5.00	> 6.00	> 6.00	> 7.00	> 6.00	> 7.00							
Nc1nc2cc(-c3cn(C4CCOCC4)c4ncnc(N)c34)ccc2o1 [Compound 9]	< 5.00	> 5.00		> 7.00		> 7.00							
CC(C)n1nc(-c2ccc3onc(N)c3c2)c2c(N)ncnc21 [Compound 10]				> 5.00		< 5.00							
CC(=O)Nc1noc2cc(-c3nn(C(C)C)c4ncnc(N)c34)ccc12 [Compound 11]				> 6.00		< 5.00							
CC(C)n1nc(-c2cc3cccc(O)c3[nH]2)c2c(N)ncnc21 [Compound 11]							< 6.30	< 6.30	6.30 to 7.00	> 8.30	6.30 to 7.00	7.30 to 7.60	
CC(C)n1nc(-c2ccc3c(N)noc3c2)c2c(N)ncnc21 [Compound 12]				> 6.00		< 5.00							
Nc1ncnc2c1c(-c1cc3cc(O)ccc3[nH]1)nn2C1CCCC1 [Compound 12]							< 6.30	< 6.30		8.00 to 8.30		7.30 to 7.60	< 6.30
CC(C)n1nc(-c2cc3cc(O)cc(Cl)c3[nH]2)c2c(N)ncnc21 [Compound 15]							< 6.30	< 6.30	7.30 to 7.60	> 8.30	7.30 to 7.60	7.30 to 7.60	
CC(C)n1nc(-c2cc3cc(O)cc(F)c3[nH]2)c2c(N)ncnc21 [Compound 16]							< 6.30	< 6.30	6.30 to 7.00	> 8.30	7.00 to 7.30	6.30 to 7.00	
CC(C)n1nc(-c2cc3ccc(C#N)cc3[nH]2)c2c(N)ncnc21 [Compound 24]								< 6.30		< 6.30		< 6.30	
CC(C)n1nc(-c2cc3ccc(C(N)=O)cc3[nH]2)c2c(N)ncnc21 [Compound 25]								< 6.30		6.30 to 7.00		< 6.30	
Nc1ncnc2c1c(-c1cc3cc(O)ccc3[nH]1)nn2C1CCCCC1 [Compound 26]							< 6.30	< 6.30	6.30 to 7.00	8.00 to 8.30	7.00 to 7.30	6.30 to 7.00	
Nc1ncnc2c1c(-c1cc3cc(O)ccc3[nH]1)nn2C1CCC1 [Compound 27]										7.60 to 8.00		6.30 to 7.00	
Nc1ncnc2c1c(-c1cc3cccc(O)c3[nH]1)nn2C1CCCC1 [Compound 36]								< 6.30	7.00 to 7.30	8.00 to 8.30	6.30 to 7.00	7.00 to 7.30	
COc1cccc2cc(-c3nn(C4CCN(C(=O)C5CC5)CC4)c4ncnc(N)c34)[nH]c12 [Compound 66]							< 6.30	< 6.30	< 6.30	< 6.30	< 6.30		
COc1cc(Cl)c2[nH]c(-c3nn(C4CCOCC4)c4ncnc(N)c34)cc2c1 [Compound 67]							< 6.30	< 6.30	< 6.30	< 6.30	< 6.30		
Nc1ncnc2c1c(-c1cc3cc(O)cc(Cl)c3[nH]1)nn2C1CCOCC1 [Compound 68]							< 6.30	6.30 to 7.00	7.30 to 7.60	> 8.30	7.60 to 8.00		
CC(=O)N1CCC(n2nc(-c3cc4c(Cl)ccc(O)c4[nH]3)c3c(N)ncnc32)CC1 [Compound 69]							< 6.30	< 6.30	< 6.30	> 8.30	6.30 to 7.00		
CC(=O)N1CCC(n2nc(-c3cc4cc(O)cc(Cl)c4[nH]3)c3c(N)ncnc32)CC1 [Compound 70]							< 6.30	6.30 to 7.00	7.00 to 7.30	> 8.30	7.60 to 8.00		
CC(C)N1CCC(n2nc(-c3cc4c(Cl)ccc(O)c4[nH]3)c3c(N)ncnc32)CC1 [Compound 71]							< 6.30	< 6.30	< 6.30	7.00 to 7.30	< 6.30		
